Results as given in patent US20230085307A1, “PYRIDAZINONE COMPOUND AND HERBICIDE” (NISSAN CHEMICAL CORPORATION, priority 2019, published 2023).

Columns and labels:
[1] = system: barnyard grass; test: Test Example 4: herbicidal effect by soil treatment (Table 19, symbol H); assay type: in vivo, barnyard grass (Echinochloa crus-galli)
In short: (§1)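 In this soil treatment, the formulated compound reached the seeds only through the soil: seeds were buried about 1.5 cm deep in sterilized diluvial soil, then the diluted emulsion was sprayed over the surface. After three weeks at 25° C. to 30° C. in a greenhouse, effects were graded on criteria from an earlier test.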

[2] = system: Italian ryegrass; test: Test Example 5: herbicidal effect by foliage application, plastic box (Table 20, symbol K); assay type: in vivo, Italian ryegrass (Lolium multiflorum); details: foliage application, evaluated three weeks after application
In short: (§2)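 Plants were sown into sterilized diluvial soil under about 1.5 cm cover and kept in a greenhouse at 25° C. to 30° C. Fourteen days on, foliage received an even spray of the diluted emulsion. Herbicidal or crop effect was judged three weeks afterwards.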

[3] = system: windgrass; test: Test Example 4: herbicidal effect by soil treatment (Table 19, symbol L); assay type: in vivo, windgrass (Apera spica-venti)
In short: as §1

[4] = system: late watergrass; test: Test Example 1: herbicidal activity, application before weed generation under submerged conditions (Table 16, symbol A); assay type: in vivo, late watergrass (Echinochloa oryzicola)
In short: (§3)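 Emulsion formulation, water-diluted to set dose, was put onto the flooded surface (4 cm depth, alluvial soil) the same day weeds were sown and 2.5-leaf rice transplanted. After 3 weeks at 25-30 °C under glass, each species was rated 0 (≤5% kill) to 5 (≥90% kill).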

[5] = system: barnyard grass; test: Test Example 5: herbicidal effect by foliage application, plastic box (Table 20, symbol H); assay type: in vivo, barnyard grass (Echinochloa crus-galli); details: foliage application, evaluated three weeks after application
In short: as §2

[6] = system: redroot pigweed; test: Test Example 5: herbicidal effect by foliage application, plastic box (Table 20, symbol N); assay type: in vivo, redroot pigweed (Amaranthus retroflexus); details: foliage application, evaluated three weeks after application
In short: as §2

[7] = system: barnyard grass; test: Test Example 3: herbicidal effect by foliage application, Wagner pot (Table 18, symbol H); assay type: in vivo, barnyard grass (Echinochloa crus-galli)
In short: (§4)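 Plants were sown in alluvial soil held under 0.1–0.5 cm standing water and grown 14 days in a greenhouse at 25–30 °C. An emulsifiable formulation, water-diluted to the set dose, was then sprayed onto the foliage, and effects were scored three weeks later using previously defined criteria.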

[8] = system: oval-leafed pondweed; test: Test Example 1: herbicidal activity, application before weed generation under submerged conditions (Table 16, symbol C); assay type: in vivo, oval-leafed pondweed (Monochoria vaginalis)
In short: as §3

[9] = system: Japanese bulrush; test: Test Example 1: herbicidal activity, application before weed generation under submerged conditions (Table 16, symbol B); assay type: in vivo, Japanese bulrush (Schoenoplectus juncoides)
In short: as §3

[10] = system: persian speedwell; test: Test Example 4: herbicidal effect by soil treatment (Table 19, symbol R); assay type: in vivo, Persian speedwell (Veronica persica)
In short: as §1

[11] = system: rice flat sedge; test: Test Example 3: herbicidal effect by foliage application, Wagner pot (Table 18, symbol E); assay type: in vivo, rice flat sedge (Cyperus iria)
In short: as §4

[12] = system: wild oat; test: Test Example 5: herbicidal effect by foliage application, plastic box (Table 20, symbol I); assay type: in vivo, wild oat (Avena fatua); details: foliage application, evaluated three weeks after application
In short: as §2

[13] = system: lambsquarters; test: Test Example 4: herbicidal effect by soil treatment (Table 19, symbol O); assay type: in vivo, lambsquarters (Chenopodium album)
In short: as §1

[14] = system: Chinese sprangletop; test: Test Example 3: herbicidal effect by foliage application, Wagner pot (Table 18, symbol D); assay type: in vivo, chinese sprangletop (Leptochloa chinensis)
In short: as §4

[15] = system: Italian ryegrass; test: Test Example 4: herbicidal effect by soil treatment (Table 19, symbol K); assay type: in vivo, Italian ryegrass (Lolium multiflorum)
In short: as §1

[16] = system: green foxtail; test: Test Example 5: herbicidal effect by foliage application, plastic box (Table 20, symbol G); assay type: in vivo, green foxtail (Setaria viridis); details: foliage application, evaluated three weeks after application
In short: as §2

[17] = system: velvetleaf; test: Test Example 5: herbicidal effect by foliage application, plastic box (Table 20, symbol M); assay type: in vivo, velvetleaf (Abutilon theophrasti); details: foliage application, evaluated three weeks after application
In short: as §2

[18] = system: blackgrass; test: Test Example 4: herbicidal effect by soil treatment (Table 19, symbol J); assay type: in vivo, blackgrass (Alopecurus myosuroides)
In short: as §1

[19] = system: lambsquarters; test: Test Example 5: herbicidal effect by foliage application, plastic box (Table 20, symbol O); assay type: in vivo, lambsquarters (Chenopodium album); details: foliage application, evaluated three weeks after application
In short: as §2

[20] = system: chickweed; test: Test Example 5: herbicidal effect by foliage application, plastic box (Table 20, symbol P); assay type: in vivo, common chickweed (Stellaria media); details: foliage application, evaluated three weeks after application
In short: as §2

[21] = system: persian speedwell; test: Test Example 5: herbicidal effect by foliage application, plastic box (Table 20, symbol R); assay type: in vivo, Persian speedwell (Veronica persica); details: foliage application, evaluated three weeks after application
In short: as §2

[22] = system: velvetleaf; test: Test Example 4: herbicidal effect by soil treatment (Table 19, symbol M); assay type: in vivo, velvetleaf (Abutilon theophrasti)
In short: as §1

[23] = system: southern crabgrass; test: Test Example 4: herbicidal effect by soil treatment (Table 19, symbol F); assay type: in vivo, southern crabgrass (Digitaria ciliaris)
In short: as §1

[24] = system: blackgrass; test: Test Example 5: herbicidal effect by foliage application, plastic box (Table 20, symbol J); assay type: in vivo, blackgrass (Alopecurus myosuroides); details: foliage application, evaluated three weeks after application
In short: as §2

[25] = system: green foxtail; test: Test Example 4: herbicidal effect by soil treatment (Table 19, symbol G); assay type: in vivo, green foxtail (Setaria viridis)
In short: as §1

[26] = system: wild oat; test: Test Example 4: herbicidal effect by soil treatment (Table 19, symbol I); assay type: in vivo, wild oat (Avena fatua)
In short: as §1

[27] = system: windgrass; test: Test Example 5: herbicidal effect by foliage application, plastic box (Table 20, symbol L); assay type: in vivo, windgrass (Apera spica-venti); details: foliage application, 176 g/ha, evaluated three weeks after application
In short: as §2

[28] = system: southern crabgrass; test: Test Example 5: herbicidal effect by foliage application, plastic box (Table 20, symbol F); assay type: in vivo, southern crabgrass (Digitaria ciliaris); details: foliage application, evaluated three weeks after application
In short: as §2

[29] = system: chickweed; test: Test Example 4: herbicidal effect by soil treatment (Table 19, symbol P); assay type: in vivo, common chickweed (Stellaria media)
In short: as §1

[30] = system: redroot pigweed; test: Test Example 4: herbicidal effect by soil treatment (Table 19, symbol N); assay type: in vivo, redroot pigweed (Amaranthus retroflexus); details: amount of applied herbicide 320 g/ha
In short: as §1

[31] = amount of applied herbicide 176 g/ha
[32] = amount of applied herbicide 320 g/ha

COc1ccccc1-c1sc2ccc(C)cc2c1-c1c(O)c(C)nn(C)c1=O [2-138]
H: barnyard grass, herbicidal effect rating [1, 31]: 3 (Herbicidal rate of 40% or more and less than 70%)
herbicidal effect on K: Italian ryegrass ([2]; 176 g/ha): 3 (Herbicidal rate of 40% or more and less than 70%)
L: windgrass, herbicidal effect rating [3, 31]: 0 (Herbicidal rate of 5% or less (almost no effect))
Herbicidal effect on A: late watergrass (grade 0-5) ([4]; 176 g/ha applied herbicide): 5 (Herbicidal rate of 90% or more (almost completely withered))
herbicidal effect on H: barnyard grass ([5]; 176 g/ha): 4 (Herbicidal rate of 70% or more and less than 90%)
herbicidal effect on N: redroot pigweed ([6]; 176 g/ha): 0 (Herbicidal rate of 5% or less (almost no effect))
herbicidal effect on H: barnyard grass [7, 31]: 5 (Herbicidal rate of 90% or more (almost completely withered))
Herbicidal effect on C: oval-leafed pondweed (grade 0-5) ([8]; 176 g/ha applied herbicide): 0 (Herbicidal rate of 5% or less (almost no effect))
Herbicidal effect on B: Japanese bulrush (grade 0-5) ([9]; 176 g/ha applied herbicide): 0 (Herbicidal rate of 5% or less (almost no effect))
R: persian speedwell, herbicidal effect rating [10, 31]: 0 (Herbicidal rate of 5% or less (almost no effect))
herbicidal effect on E: rice flat sedge [11, 31]: 4 (Herbicidal rate of 70% or more and less than 90%)
herbicidal effect on I: wild oat ([12]; 176 g/ha): 0 (Herbicidal rate of 5% or less (almost no effect))
O: lambsquarters, herbicidal effect rating [13, 31]: 5 (Herbicidal rate of 90% or more (almost completely withered))
herbicidal effect on D: Chinese sprangletop [14, 31]: 1 (Herbicidal rate of 5% or more and less than 20%)
K: Italian ryegrass, herbicidal effect rating [15, 31]: 0 (Herbicidal rate of 5% or less (almost no effect))
herbicidal effect on G: green foxtail ([16]; 176 g/ha): 4 (Herbicidal rate of 70% or more and less than 90%)
herbicidal effect on M: velvetleaf ([17]; 176 g/ha): 5 (Herbicidal rate of 90% or more (almost completely withered))
J: blackgrass, herbicidal effect rating [18, 31]: 3 (Herbicidal rate of 40% or more and less than 70%)
herbicidal effect on O: lambsquarters ([19]; 176 g/ha): 4 (Herbicidal rate of 70% or more and less than 90%)
herbicidal effect on P: chickweed ([20]; 176 g/ha): 5 (Herbicidal rate of 90% or more (almost completely withered))
herbicidal effect on R: persian speedwell ([21]; 176 g/ha): 5 (Herbicidal rate of 90% or more (almost completely withered))
M: velvetleaf, herbicidal effect rating [22, 31]: 0 (Herbicidal rate of 5% or less (almost no effect))
F: southern crabgrass, herbicidal effect rating [23, 31]: 0 (Herbicidal rate of 5% or less (almost no effect))
herbicidal effect on J: blackgrass ([24]; 176 g/ha): 3 (Herbicidal rate of 40% or more and less than 70%)
G: green foxtail, herbicidal effect rating [25, 31]: 4 (Herbicidal rate of 70% or more and less than 90%)
I: wild oat, herbicidal effect rating [26, 31]: 0 (Herbicidal rate of 5% or less (almost no effect))
herbicidal effect on L: windgrass [27]: 4 (Herbicidal rate of 70% or more and less than 90%)
herbicidal effect on F: southern crabgrass ([28]; 176 g/ha): 3 (Herbicidal rate of 40% or more and less than 70%)
P: chickweed, herbicidal effect rating [29, 31]: 0 (Herbicidal rate of 5% or less (almost no effect))

Cc1nn(C)c(=O)c(-c2c(-c3ccc(C(C)(C)C)cc3)sc3ccc(F)cc23)c1O [2-208]
H: barnyard grass, herbicidal effect rating [1, 32]: 0 (Herbicidal rate of 5% or less (almost no effect))
herbicidal effect on K: Italian ryegrass (criteria 0-5) ([2]; 320 g/ha): 0 (Herbicidal rate of 5% or less (almost no effect))
L: windgrass, herbicidal effect rating [3, 32]: 0 (Herbicidal rate of 5% or less (almost no effect))
Herbicidal effect on A: late watergrass (grade 0-5) ([4]; 320 g/ha applied herbicide): 0 (Herbicidal rate of 5% or less (almost no effect))
herbicidal effect on H: barnyard grass (criteria 0-5) ([5]; 320 g/ha): 5 (Herbicidal rate of 90% or more (almost completely withered))
herbicidal effect on N: redroot pigweed (criteria 0-5) ([6]; 320 g/ha): 3 (Herbicidal rate of 40% or more and less than 70%)
herbicidal effect on H: barnyard grass [7, 32]: 5 (Herbicidal rate of 90% or more (almost completely withered))
Herbicidal effect on C: oval-leafed pondweed (grade 0-5) ([8]; 320 g/ha applied herbicide): 0 (Herbicidal rate of 5% or less (almost no effect))
Herbicidal effect on B: Japanese bulrush (grade 0-5) ([9]; 320 g/ha applied herbicide): 2 (Herbicidal rate of 20% or more and less than 40%)
R: persian speedwell, herbicidal effect rating [10, 32]: 0 (Herbicidal rate of 5% or less (almost no effect))
herbicidal effect on E: rice flat sedge [11, 32]: 5 (Herbicidal rate of 90% or more (almost completely withered))
herbicidal effect on I: wild oat (criteria 0-5) ([12]; 320 g/ha): 0 (Herbicidal rate of 5% or less (almost no effect))
O: lambsquarters, herbicidal effect rating [13, 32]: 2 (Herbicidal rate of 20% or more and less than 40%)
herbicidal effect on D: Chinese sprangletop [14, 32]: 5 (Herbicidal rate of 90% or more (almost completely withered))
K: Italian ryegrass, herbicidal effect rating [15, 32]: 0 (Herbicidal rate of 5% or less (almost no effect))
herbicidal effect on G: green foxtail (criteria 0-5) ([16]; 320 g/ha): 2 (Herbicidal rate of 20% or more and less than 40%)
N: redroot pigweed, herbicidal effect rating [30]: 0 (Herbicidal rate of 5% or less (almost no effect))
herbicidal effect on M: velvetleaf (criteria 0-5) ([17]; 320 g/ha): 2 (Herbicidal rate of 20% or more and less than 40%)
J: blackgrass, herbicidal effect rating [18, 32]: 0 (Herbicidal rate of 5% or less (almost no effect))
herbicidal effect on O: lambsquarters (criteria 0-5) ([19]; 320 g/ha): 0 (Herbicidal rate of 5% or less (almost no effect))
herbicidal effect on P: chickweed (criteria 0-5) ([20]; 320 g/ha): 5 (Herbicidal rate of 90% or more (almost completely withered))
herbicidal effect on R: persian speedwell (criteria 0-5) ([21]; 320 g/ha): 5 (Herbicidal rate of 90% or more (almost completely withered))
M: velvetleaf, herbicidal effect rating [22, 32]: 1 (Herbicidal rate of 5% or more and less than 20%)
F: southern crabgrass, herbicidal effect rating [23, 32]: 3 (Herbicidal rate of 40% or more and less than 70%)
herbicidal effect on J: blackgrass (criteria 0-5) ([24]; 320 g/ha): 0 (Herbicidal rate of 5% or less (almost no effect))
G: green foxtail, herbicidal effect rating [25, 32]: 0 (Herbicidal rate of 5% or less (almost no effect))
I: wild oat, herbicidal effect rating [26, 32]: 0 (Herbicidal rate of 5% or less (almost no effect))
herbicidal effect on F: southern crabgrass (criteria 0-5) ([28]; 320 g/ha): 3 (Herbicidal rate of 40% or more and less than 70%)
P: chickweed, herbicidal effect rating [29, 32]: 0 (Herbicidal rate of 5% or less (almost no effect))
